Consider two molecules from publication PMC4286194 (Biochemical Journal, 2015).

Common to all, as to assay: Kinase profiling
Holding throughout (format): biochemical

Assay [1] addresses T1, TAO1 (Homo sapiens, UniProt Q7L7X3).
T1 sequence (Q7L7X3 1-1001): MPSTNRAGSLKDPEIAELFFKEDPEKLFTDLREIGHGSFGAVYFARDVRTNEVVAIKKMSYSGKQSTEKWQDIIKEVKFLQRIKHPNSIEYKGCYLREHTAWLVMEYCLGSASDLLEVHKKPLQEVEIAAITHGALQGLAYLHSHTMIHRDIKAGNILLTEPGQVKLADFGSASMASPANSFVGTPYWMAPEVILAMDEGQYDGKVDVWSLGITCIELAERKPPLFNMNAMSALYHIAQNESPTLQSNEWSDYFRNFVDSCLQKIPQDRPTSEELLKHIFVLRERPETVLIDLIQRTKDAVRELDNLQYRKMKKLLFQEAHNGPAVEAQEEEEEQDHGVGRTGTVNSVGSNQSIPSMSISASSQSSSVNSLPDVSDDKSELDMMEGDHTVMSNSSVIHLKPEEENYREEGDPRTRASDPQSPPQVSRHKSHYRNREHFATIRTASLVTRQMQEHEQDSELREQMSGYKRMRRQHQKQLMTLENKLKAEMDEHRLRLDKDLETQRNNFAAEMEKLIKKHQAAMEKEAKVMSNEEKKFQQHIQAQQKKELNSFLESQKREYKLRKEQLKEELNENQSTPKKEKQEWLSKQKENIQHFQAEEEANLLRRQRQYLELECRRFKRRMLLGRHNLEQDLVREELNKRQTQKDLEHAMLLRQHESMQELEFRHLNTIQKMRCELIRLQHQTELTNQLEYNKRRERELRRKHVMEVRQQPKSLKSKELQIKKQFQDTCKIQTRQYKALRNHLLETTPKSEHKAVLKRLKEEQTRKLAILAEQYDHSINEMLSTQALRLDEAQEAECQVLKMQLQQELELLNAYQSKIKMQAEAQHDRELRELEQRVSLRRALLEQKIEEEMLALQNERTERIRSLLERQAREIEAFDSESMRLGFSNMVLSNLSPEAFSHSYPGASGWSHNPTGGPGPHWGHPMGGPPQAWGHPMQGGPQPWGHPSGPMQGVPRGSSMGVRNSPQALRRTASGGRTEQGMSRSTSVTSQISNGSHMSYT

Assay [2] has as its target EF2K (Homo sapiens, UniProt O00418).
For assay [3], the target named is T2, PRAK (Homo sapiens, UniProt Q8IW41).
T2 sequence (Q8IW41 1-473): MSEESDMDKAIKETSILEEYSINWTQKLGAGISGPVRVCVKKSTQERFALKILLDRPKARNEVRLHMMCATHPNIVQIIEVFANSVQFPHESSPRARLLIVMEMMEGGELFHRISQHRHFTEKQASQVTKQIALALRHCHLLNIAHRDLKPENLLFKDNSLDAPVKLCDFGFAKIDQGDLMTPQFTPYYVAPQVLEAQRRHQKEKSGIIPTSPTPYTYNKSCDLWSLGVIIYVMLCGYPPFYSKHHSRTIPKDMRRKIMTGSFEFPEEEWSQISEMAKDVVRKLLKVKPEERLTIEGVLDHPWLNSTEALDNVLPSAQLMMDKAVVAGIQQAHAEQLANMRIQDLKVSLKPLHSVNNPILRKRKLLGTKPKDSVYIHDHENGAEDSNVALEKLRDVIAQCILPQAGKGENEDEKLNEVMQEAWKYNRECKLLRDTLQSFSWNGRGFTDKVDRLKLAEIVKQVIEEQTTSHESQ

In assay [4] the target is PRK2 (Homo sapiens, UniProt Q16513).
Assay [5] has as its target T3, NUAK1 (Homo sapiens, UniProt O60285).
T3 sequence (O60285 1-661): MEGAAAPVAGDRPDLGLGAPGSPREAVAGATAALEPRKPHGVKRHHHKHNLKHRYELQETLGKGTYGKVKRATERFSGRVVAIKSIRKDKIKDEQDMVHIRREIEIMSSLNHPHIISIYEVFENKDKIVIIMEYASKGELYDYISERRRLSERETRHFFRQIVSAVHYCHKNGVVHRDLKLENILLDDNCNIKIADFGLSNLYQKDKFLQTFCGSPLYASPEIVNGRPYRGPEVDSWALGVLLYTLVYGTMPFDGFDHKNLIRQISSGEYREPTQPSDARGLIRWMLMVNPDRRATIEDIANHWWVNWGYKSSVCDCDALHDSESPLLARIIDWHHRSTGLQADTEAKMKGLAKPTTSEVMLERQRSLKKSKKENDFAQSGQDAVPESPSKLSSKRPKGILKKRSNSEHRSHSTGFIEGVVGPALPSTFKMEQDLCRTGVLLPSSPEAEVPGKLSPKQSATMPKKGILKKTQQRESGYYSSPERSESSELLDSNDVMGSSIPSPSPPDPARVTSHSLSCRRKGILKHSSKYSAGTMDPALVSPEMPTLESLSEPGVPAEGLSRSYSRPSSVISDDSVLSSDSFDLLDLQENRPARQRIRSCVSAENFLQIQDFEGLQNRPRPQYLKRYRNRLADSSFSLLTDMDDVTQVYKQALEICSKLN

For assay [6], the target named is T4, ZAP70 (Homo sapiens, UniProt P43403).
T4 sequence (P43403 1-619): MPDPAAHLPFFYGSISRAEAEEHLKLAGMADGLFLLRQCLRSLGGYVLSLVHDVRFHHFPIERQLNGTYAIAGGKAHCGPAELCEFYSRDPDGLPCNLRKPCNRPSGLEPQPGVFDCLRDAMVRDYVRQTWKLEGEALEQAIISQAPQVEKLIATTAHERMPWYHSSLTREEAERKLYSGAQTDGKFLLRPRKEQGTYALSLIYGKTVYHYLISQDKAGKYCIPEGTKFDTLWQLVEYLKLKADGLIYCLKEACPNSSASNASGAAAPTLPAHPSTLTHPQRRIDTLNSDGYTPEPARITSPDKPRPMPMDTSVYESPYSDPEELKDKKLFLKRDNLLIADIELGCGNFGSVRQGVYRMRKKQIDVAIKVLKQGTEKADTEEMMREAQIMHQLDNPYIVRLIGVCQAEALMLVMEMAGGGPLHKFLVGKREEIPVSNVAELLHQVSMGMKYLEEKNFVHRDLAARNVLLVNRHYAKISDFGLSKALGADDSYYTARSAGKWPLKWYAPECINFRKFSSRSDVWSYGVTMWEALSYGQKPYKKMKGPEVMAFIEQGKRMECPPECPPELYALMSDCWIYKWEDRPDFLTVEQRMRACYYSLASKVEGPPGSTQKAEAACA

PRK2, sequence (Q16513 whole entry): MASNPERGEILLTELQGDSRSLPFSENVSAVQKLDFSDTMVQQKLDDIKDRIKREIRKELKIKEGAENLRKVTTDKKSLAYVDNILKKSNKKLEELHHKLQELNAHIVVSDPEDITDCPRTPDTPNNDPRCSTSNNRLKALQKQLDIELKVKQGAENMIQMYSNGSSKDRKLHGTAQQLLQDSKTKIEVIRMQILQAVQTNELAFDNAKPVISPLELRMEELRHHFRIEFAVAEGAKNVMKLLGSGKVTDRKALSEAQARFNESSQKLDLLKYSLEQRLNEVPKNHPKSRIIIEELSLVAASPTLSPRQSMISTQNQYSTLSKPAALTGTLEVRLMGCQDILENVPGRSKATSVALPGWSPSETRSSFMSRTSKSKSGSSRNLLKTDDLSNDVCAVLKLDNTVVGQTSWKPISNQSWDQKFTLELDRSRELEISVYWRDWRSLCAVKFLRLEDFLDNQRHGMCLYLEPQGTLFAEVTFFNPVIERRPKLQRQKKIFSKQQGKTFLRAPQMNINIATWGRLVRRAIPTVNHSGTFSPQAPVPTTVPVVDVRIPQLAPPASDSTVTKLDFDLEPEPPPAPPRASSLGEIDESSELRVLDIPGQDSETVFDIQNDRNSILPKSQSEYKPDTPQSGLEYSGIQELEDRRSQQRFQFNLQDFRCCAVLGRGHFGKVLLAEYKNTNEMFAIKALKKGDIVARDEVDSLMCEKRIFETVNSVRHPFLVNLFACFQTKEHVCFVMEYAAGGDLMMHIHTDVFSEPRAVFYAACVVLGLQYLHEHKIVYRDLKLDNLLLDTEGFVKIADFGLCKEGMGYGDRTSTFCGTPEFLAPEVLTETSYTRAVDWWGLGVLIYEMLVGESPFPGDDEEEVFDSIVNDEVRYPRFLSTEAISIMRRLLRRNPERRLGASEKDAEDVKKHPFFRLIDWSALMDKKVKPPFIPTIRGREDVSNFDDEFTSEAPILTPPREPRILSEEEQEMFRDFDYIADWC

`COc1cc(Nc2c(C#N)cnc3cc(OCCCN4CCN(C)CC4)c(OC)cc23)c(Cl)cc1Cl` [Bosutinib, bosutinib]: the remaining activity at 1 µM was determined as 102 ± 7% in assay [1]; 95 ± 6% in assay [2]; 125 ± 1% in assay [3]; 56 ± 3% in assay [4]; 21 ± 2% in assay [5]; 109 ± 18% in assay [6]. Also, the remaining activity at 0.1 µM in assay [2] came out at 81 ± 2%; in assay [3] it was 97 ± 2%; in assay [4] it was 86 ± 6%; in assay [5] it was 63 ± 12%; in assay [6], 99 ± 4%.
In the case of `Cc1nc(Nc2ncc(C(=O)Nc3c(C)cccc3Cl)s2)cc(N2CCN(CCO)CC2)n1` [Dasatinib], the remaining activity at 0.1 µM worked out at 120 ± 9% in assay [1] (0.1 µM); 104 ± 4% in assay [2]; 129 ± 14% in assay [3]; 100 ± 2% in assay [4]; 119 ± 10% in assay [5]; 109 ± 1% in assay [6]. Besides, the remaining activity at 1 µM in assay [1] came out at 95 ± 7%; in assay [2], 95 ± 5%; in assay [3] it was 128 ± 7%; in assay [4], 101%; in assay [5], 118 ± 8%; in assay [6], 121 ± 27%.
